ChEMBL document CHEMBL1146010, “Synthesis and in vitro antimycobacterial activity of N1-nicotinoyl-3-(4'-hydroxy-3'-methyl phenyl)-5-[(sub)phenyl]-2-pyrazolines” (2006)
Values after ≈ are worked out from the molar mass of the structure shown.

How the values were obtained:
[1] = system: Mycobacterium tuberculosis; experiment: Antimycobacterial activity against Mycobacterium tuberculosis H37Rv by agar dilution method; type: functional
Vero = experiment: Cytotoxicity against Vero cell line upto 62.5 ug/ml after 72 hrs by MTT assay; type: functional, cell-based; conditions: Chlorocebus sabaeus

Structure (SMILES) | MIC [1] [µM] | Activity (Vero)
COc1ccc(C2CC(c3ccc(O)c(C)c3)=NN2C(=O)c2ccncc2)cc1 (stereo not given) | 16.1 (≈ 6.25 µg/mL) | 
Cc1cc(C2=NN(C(=O)c3ccncc3)C(c3cccc([N+](=O)[O-])c3)C2)ccc1O (stereo not given) | 15.5 (≈ 6.25 µg/mL) | 
Cc1cc(C2=NN(C(=O)c3ccncc3)C(c3ccccc3Cl)C2)ccc1O (stereo not given) | 0.26 (≈ 0.102 µg/mL) | Not toxic
Cc1cc(C2=NN(C(=O)c3ccncc3)C(c3ccccc3)C2)ccc1O (stereo not given) | 8.73 (≈ 3.12 µg/mL) | 
Cc1cc(C2=NN(C(=O)c3ccncc3)C(c3ccco3)C2)ccc1O (stereo not given) | 0.58 (≈ 0.201 µg/mL) | 
COc1ccc(C2CC(c3ccc(O)c(C)c3)=NN2C(=O)c2ccncc2)c(OC)c1OC (stereo not given) | 3.93 (≈ 1.76 µg/mL) | 
COc1ccc(C2CC(c3ccc(O)c(C)c3)=NN2C(=O)c2ccncc2)cc1OC (stereo not given) | 1.87 (≈ 0.781 µg/mL) | 
Cc1cc(C2=NN(C(=O)c3ccncc3)C(c3ccc(F)cc3)C2)ccc1O (stereo not given) | 0.27 (≈ 0.101 µg/mL) | Not toxic
NNC(=O)c1ccncc1 [ISONIAZID] | 0.73 (≈ 0.1 µg/mL) | 
Cc1cc(C2=NN(C(=O)c3ccncc3)C(c3c(Cl)cccc3Cl)C2)ccc1O (stereo not given) | 0.47 (≈ 0.2 µg/mL) | Not toxic
Cc1cc(C2=NN(C(=O)c3ccncc3)C(c3ccc(Cl)cc3)C2)ccc1O (stereo not given) | 1.99 (≈ 0.78 µg/mL) | 
Cc1cc(C2=NN(C(=O)c3ccncc3)C(c3ccc(N(C)C)cc3)C2)ccc1O (stereo not given) | 1.95 (≈ 0.781 µg/mL) | 
